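Step 1: Grow cells in 96-well plates. Step 2: Expose to compound for 48 hours at 5 concentrations. Step 3: Interpolate endpoints linearly; if unreached, use highest concentration. Abbreviation: GI50, concentration required for 50% inhibition of growth. Definition used: TGI = concentration required for complete inhibition of growth.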
Key:
Assay in all cases: NCI anticancer screen, dose series, 48 h
OVCAR-5 ovarian = tested on: OVCAR-5 ovarian
NCI-H23 lung = tested on: NCI-H23 lung
NCI-H522 lung = tested on: NCI-H522 lung
MOLT-4 leukemia = tested on: MOLT-4 leukemia
SNB-19 CNS = tested on: SNB-19 CNS
M14 melanoma = tested on: M14 melanoma
RXF 393 renal = tested on: RXF 393 renal
MDA-MB-435 = tested on: MDA-MB-435
EKVX NSCLC = tested on: EKVX NSCLC
BT-549 breast = tested on: BT-549 breast
NCI-H460 lung = tested on: NCI-H460 lung
TK-10 renal = tested on: TK-10 renal
HCC-2998 colon = tested on: HCC-2998 colon
SF-268 CNS = tested on: SF-268 CNS
U251 CNS = tested on: U251 CNS
SK-MEL-28 melanoma = tested on: SK-MEL-28 melanoma
COLO 205 colon = tested on: COLO 205 colon
SK-MEL-2 melanoma = tested on: SK-MEL-2 melanoma
UO-31 renal = tested on: UO-31 renal
NCI/ADR-RES ovarian = tested on: NCI/ADR-RES ovarian
A549 NSCLC = tested on: A549 NSCLC
MCF7 breast = tested on: MCF7 breast
HOP-62 NSCLC = tested on: HOP-62 NSCLC
UACC-62 melanoma = tested on: UACC-62 melanoma
T-47D breast = tested on: T-47D breast
UACC-257 melanoma = tested on: UACC-257 melanoma
SW-620 colon = tested on: SW-620 colon
KM12 colon = tested on: KM12 colon
SK-MEL-5 melanoma = tested on: SK-MEL-5 melanoma
HOP-92 NSCLC = tested on: HOP-92 NSCLC
DU-145 prostate = tested on: DU-145 prostate
HL-60(TB) leukemia = tested on: HL-60(TB) leukemia
HT29 colon = tested on: HT29 colon
ACHN renal = tested on: ACHN renal
OVCAR-4 ovarian = tested on: OVCAR-4 ovarian
SNB-75 CNS = tested on: SNB-75 CNS
PC-3 prostate = tested on: PC-3 prostate
SF-295 CNS = tested on: SF-295 CNS
HCT-116 colon = tested on: HCT-116 colon
IGROV1 ovarian = tested on: IGROV1 ovarian
MALME-3M melanoma = tested on: MALME-3M melanoma
NCI-H226 lung = tested on: NCI-H226 lung
CAKI-1 renal = tested on: CAKI-1 renal
CCRF-CEM leukemia = tested on: CCRF-CEM leukemia
SR leukemia = tested on: SR leukemia
LOX IMVI melanoma = tested on: LOX IMVI melanoma
HCT-15 colon = tested on: HCT-15 colon
OVCAR-3 ovarian = tested on: OVCAR-3 ovarian
A498 renal = tested on: A498 renal
SF-539 CNS = tested on: SF-539 CNS
SK-OV-3 ovarian = tested on: SK-OV-3 ovarian
SN12C renal = tested on: SN12C renal
RPMI-8226 leukemia = tested on: RPMI-8226 leukemia
OVCAR-8 ovarian = tested on: OVCAR-8 ovarian
HS 578T breast = tested on: HS 578T breast
MDA-MB-231 breast = tested on: MDA-MB-231 breast

COc1cc(-n2cc(-c3cc(O)c(C/C=C(\C)CCC=C(C)C)c(O)c3)nn2)cc2c1O[C@]1(C)CC[C@@H](O)C(C)(C)[C@H]1C2
GI50 (OVCAR-5 ovarian): 2350 nM | TGI (OVCAR-5 ovarian): 21500 nM | GI50 (NCI-H23 lung): 3260 nM | TGI (NCI-H23 lung): 31300 nM | GI50 (NCI-H522 lung): 1190 nM | TGI (NCI-H522 lung): 4350 nM | GI50 (MOLT-4 leukemia): 67.1 nM | TGI (MOLT-4 leukemia): 1360 nM | GI50 (SNB-19 CNS): 1890 nM | TGI (SNB-19 CNS): 40300 nM | GI50 (M14 melanoma): 787 nM | TGI (M14 melanoma): 31000 nM | GI50 (RXF 393 renal): 21.4 nM | TGI (RXF 393 renal): 337 nM | GI50 (MDA-MB-435): 1220 nM | TGI (MDA-MB-435): 27600 nM | GI50 (EKVX NSCLC): 2280 nM | TGI (EKVX NSCLC): 44100 nM | GI50 (BT-549 breast): 974 nM | TGI (BT-549 breast): 20500 nM | GI50 (NCI-H460 lung): 1130 nM | TGI (NCI-H460 lung): 14900 nM | GI50 (TK-10 renal): 7970 nM | TGI (TK-10 renal): > 100000 nM | GI50 (HCC-2998 colon): 2450 nM | TGI (HCC-2998 colon): 19000 nM | GI50 (SF-268 CNS): 2030 nM | TGI (SF-268 CNS): 30400 nM | GI50 (U251 CNS): 95.9 nM | TGI (U251 CNS): 10900 nM | GI50 (SK-MEL-28 melanoma): 754 nM | TGI (SK-MEL-28 melanoma): 27600 nM | GI50 (COLO 205 colon): 3760 nM | TGI (COLO 205 colon): 22200 nM | GI50 (SK-MEL-2 melanoma): 672 nM | TGI (SK-MEL-2 melanoma): 11500 nM | GI50 (UO-31 renal): 365 nM | TGI (UO-31 renal): 1960 nM | GI50 (NCI/ADR-RES ovarian): 3510 nM | TGI (NCI/ADR-RES ovarian): 68600 nM | GI50 (A549 NSCLC): 1120 nM | TGI (A549 NSCLC): 20700 nM | GI50 (MCF7 breast): 338 nM | TGI (MCF7 breast): 19200 nM | GI50 (HOP-62 NSCLC): 564 nM | TGI (HOP-62 NSCLC): 12700 nM | GI50 (UACC-62 melanoma): 230 nM | TGI (UACC-62 melanoma): 2980 nM | GI50 (T-47D breast): 1340 nM | TGI (T-47D breast): 47200 nM | GI50 (UACC-257 melanoma): 5090 nM | TGI (UACC-257 melanoma): 48400 nM | GI50 (SW-620 colon): 726 nM | TGI (SW-620 colon): 10700 nM | GI50 (KM12 colon): 2470 nM | TGI (KM12 colon): 31900 nM | GI50 (SK-MEL-5 melanoma): 1330 nM | TGI (SK-MEL-5 melanoma): 5770 nM | GI50 (HOP-92 NSCLC): 1030 nM | TGI (HOP-92 NSCLC): 17300 nM | GI50 (DU-145 prostate): 2300 nM | TGI (DU-145 prostate): 26300 nM | GI50 (HL-60(TB) leukemia): 65.5 nM | TGI (HL-60(TB) leukemia): 3880 nM | GI50 (HT29 colon): 1710 nM | TGI (HT29 colon): 5810 nM | GI50 (ACHN renal): 1790 nM | TGI (ACHN renal): 26600 nM | GI50 (OVCAR-4 ovarian): 3130 nM | TGI (OVCAR-4 ovarian): 41600 nM | GI50 (SNB-75 CNS): 208 nM | TGI (SNB-75 CNS): 15000 nM | GI50 (PC-3 prostate): 598 nM | TGI (PC-3 prostate): > 84300 nM | GI50 (SF-295 CNS): 28 nM | TGI (SF-295 CNS): 122 nM | GI50 (HCT-116 colon): 1150 nM | TGI (HCT-116 colon): 23500 nM | GI50 (IGROV1 ovarian): 1850 nM | TGI (IGROV1 ovarian): 28500 nM | GI50 (MALME-3M melanoma): 1380 nM | TGI (MALME-3M melanoma): 8400 nM | GI50 (NCI-H226 lung): 5980 nM | TGI (NCI-H226 lung): 68400 nM | GI50 (CAKI-1 renal): 430 nM | TGI (CAKI-1 renal): > 100000 nM | GI50 (CCRF-CEM leukemia): 194 nM | TGI (CCRF-CEM leukemia): > 43300 nM | GI50 (SR leukemia): 31.7 nM | TGI (SR leukemia): > 100000 nM | GI50 (LOX IMVI melanoma): 186 nM | TGI (LOX IMVI melanoma): 1090 nM | GI50 (HCT-15 colon): 1080 nM | TGI (HCT-15 colon): 9700 nM | GI50 (OVCAR-3 ovarian): 2580 nM | TGI (OVCAR-3 ovarian): 14300 nM | GI50 (A498 renal): 298 nM | TGI (A498 renal): 32800 nM | GI50 (SF-539 CNS): 66.4 nM | TGI (SF-539 CNS): 1760 nM | GI50 (SK-OV-3 ovarian): 2300 nM | TGI (SK-OV-3 ovarian): 33300 nM | GI50 (SN12C renal): 3860 nM | TGI (SN12C renal): > 41400 nM | GI50 (RPMI-8226 leukemia): 32.4 nM | TGI (RPMI-8226 leukemia): 475 nM | GI50 (OVCAR-8 ovarian): 3170 nM | TGI (OVCAR-8 ovarian): > 66400 nM | GI50 (HS 578T breast): 45.2 nM | TGI (HS 578T breast): 3410 nM | GI50 (MDA-MB-231 breast): 275 nM | TGI (MDA-MB-231 breast): 3240 nM

Reference: PubChem BioAssay (NCI)
